Source: patent US20240247048A1 (EMORY UNIVERSITY, priority 2021, published 2024)

Tests used:
[1] = test system: luciferase+ mouse T cells; assay: proliferation of luciferase+ mouse T cells in vitro (plate-bound anti-CD3, luminescence); format: cell-based; settings: 96 hours; for lowest concentration of peptide that led to maximal luminescence: luc+ T cell proliferation, plate-bound anti-CD3; for luc+ T cell proliferation: relative luminescence, quadruplicate wells, plate-bound anti-CD3, daily addition of peptide, at the concentration in brackets
Source text: (§1) VIP-related peptides tested in silico for predicted binding affinities to human VPAC1 and VPAC2 (Creative Biolabs). Docking scores show predicted free energy change associated with peptide binding. Note that a greater negative score is predicted to be associated with higher binding affinity. Based upon an initial screen of 300 peptides for binding affinity to VPAC1 and screening a subset of 100 peptides for binding affinity to VPAC2, a select group of peptides were synthesized and tested for their ability to stimulate proliferation of luciferase+ mouse T cells in vitro. The lowest concentration of peptide that led to maximal luminescence is shown. Proliferation data represents the relative level of luminescence from quadruplicate wells containing 1×10E5 T cells/well in a 96 well tissue culture plate stimulated for 96 hours with plate-bound anti-CD3 antibodies. Confirmatory in vivo testing of select peptides was then performed based upon their ability to induce autologous anti-leukemia responses in C57Bl/6 mice that had been previously injected with 1×10E6 C1498 acute myeloid leukemia cells. Leukemia cells were injected on day 0, 10 ug peptide was injected s.c. daily on days 6-12. The predicted binding affinity to VPAC1 and/or VPAC2 was associated with enhanced activity in stimulating mouse T cell proliferation and anti-leukemia activity in mice.

[2] = test system: C1498 acute myeloid leukemia cells; assay: survival of mice engrafted with C1498 acute myeloid leukemia; format: in vivo, mouse; parameters: percentage of survival: concentration or dose not given beside the values; settings: for Median survival time / Percentage alive day 60: 1 x 10E6 C1498 i.v. on day 0, 10 ug peptide s.c. daily on days 6-12; for percentage of survival: FIG. 3, leukemia-bearing mice treated with peptide
Protocol: B6 (CD45.2, H-2K^b) mice were administered C1498 1×10^6/mouse through tail vein. […] Survival of the mice was observed daily. Data were pooled from 3 replicated experiments.
B6 (CD45.2, H-2K^b) mice were administered C1498 1×10^6/mouse through tail vein. […] Survival of the mice was observed daily. Survival of the mice were pooled from 3 replicated experiments and analyzed by log-rank test compared with the survival of mice treated with scrambled peptide.
B6 SJL (CD45.1, H-2K^b) mice were administered C1498 (CD45.2 H-2K^b) 1×10^6/mouse through tail vein. […] The mice were bled weekly from the submandibular vein, starting from day 6, prior to the administration of peptides. Antibodies to CD45.2 identified myeloid leukemia cells and antibodies to CD45.1 identified murine leukocytes of the host.
as §1
To test the ability of the disclosed VIP-R antagonists to effect survival to acute myeloid leukemia survival, B6 (CD45.2, H-2K^b) mice were administered C1498 1×10^6/mouse through tail vein. […] Survival of the mice was observed daily.

human T cells = assay: activation of healthy-donor human T cells (anti-CD3), marker expression by flow cytometry; format: cell-based; settings: across multiple donors
Protocol: Mean value from ‘Activated’ group shown with dotted line (---) for comparison. Responses from same healthy donors are shown with same color dots. Error bars are computed as the standard error of the mean (SEM) from 6 healthy donor samples.
This study adopted an ex-vivo system using human T cells isolated from healthy donors to screen for novel VIP-R antagonist peptides. Human T cells were cultured over 6 or 24 hours with activation in the presence or absence of peptides and were assessed for percent CD69 surface expression by flow cytometry to measure the state of T cell activation. The activity of the peptides was determined by percent increase in CD69 expression relative to no peptide control. […] We also observed that amongst the donors, most were classified as average responders, with measured value for CD69 expression within the error bars while two others had measured values outside the error bars, one sample reflecting a super-responder (purple dots) and one sample reflecting a slow-responder (green dots) (FIGS. 10A and 10B). […]
Human T cell activation and expansion. […] Cells were counted using Trypan blue dye and phenotyped via flow cytometry on day 9. […]

Sequence | lowest concentration of peptide that led to maximal luminescence [1] | luc+ T cell proliferation [1] | Median survival time [2] | Percentage alive day 60 [2] | percentage of survival [2] | activity compared among the three antagonists (CD69) (human T cells)
KPRRPYTDNCTRLRKQMAVKKYLNSILN [ANT005] | 3 µM | 187% + 1% |  |  |  | 
KPRRPYTSDYTRLRKQMAVKKYLNSILN [ANT300] | 0.3 µM | 216% + 20% | 47 days | 33.30% |  | 
KPRRPYTDNYTRLRKQMAVKKYLNSILN [VIPhyb, reference compound] | 1 µM | 197% + 38% | 34 days | 5% | 5% | 
KPRRPYTVNYTSLRKQIAVKKYLMLILN [ANT195] | 3 µM | 161% + 23% | 38 days | 40% | 40% | highest activity
KPRRPYADNCTRLRKQIAVNKKYLNSILN [ANT114] |  |  | 34 days | 20% | 20% | 
KPRRPYADNYTRLRKQMAVNKYLNLILN [ANT058] |  |  | 35 days | 30% | 30% | 
HSDAVFINTKLDKLNTRLVSAQNYMKYR [SCRAM1, reference compound] |  |  | 28 days | 0% |  | 
KPRRPYAVNYTRLRKQIAVKKYLMSILN [ANT105] | 3 µM | 121% + 6% |  |  |  | 
KPRRPYAVNYTRLRKQMAVNKYLMSILN [ANT107] |  |  | 38 days | 30% | 20% | 
KPRRPYTDNCTSLRKQIAVNKYLNLILN [ANT197] | 3 µM | 161% + 13% | 37 days | 35% | 35% | 
KPRRPYAVNCTSLRKQIAVNKYLNSILN [ANT202] | 3 µM | 171% + 8% |  |  |  | 
KPRRPYINTKLDKLNTRLVSAQNYMKYR [SCRAM2, reference compound] |  | 108.74% |  | 0% |  | 
KKPRRPYTVNCTSLRKQIAVKKYLMLILN [ANT219] | 3 µM | 189% + 8% | 35 days | 20% | 20% | 
KPRRPYAVNCTSLRKQIAVKKYLMSILN [ANT203] | 3 µM | 185% + 8% | 34 days | 25% | 25% | 
HSDAVFTDNYTRLRKQMAVKKYLNSILN [VIP, reference compound] | 0.1 µM | 77% + 13% | 30 days | 0% |  | 
